We go through 3 compounds from patent US10100052B2, “Compounds for the treatment of hepatitis B virus infection” (Gilead Sciences, Inc., priority 2016, dated 2018).

One data set can be described thus: MT-4 cytotoxicity assay. Conditions: human, MT-4 cells; five days incubation, Cell Titer Glo. It is filed as cell-based. The protocol: The MT-4 cell line (HTLV-1 transformed, human T lymphoblastoid cells) was obtained from the NIH AIDS Reagent program (Bethesda, Md.). MT-4 cells were maintained in RPMI-1640 supplemented with 10% fetal bovine serum (FBS, Hyclone, Logan, Utah). All cell culture media were also supplemented with 100 Units/mL penicillin, 100 μg/mL streptomycin (Gibco). For the MT-4 cytotoxicity assay, 0.4 μL of serially diluted solutions of certain compounds disclosed herein were added to 40 μL of cell maintenance media in 384-well black, solid bottom plate using a Biomek FX workstation (Beckman Coulter). Two thousand cells in 35 μL were added to each well using a Biotek uFlow Workstation (Biotek). Each assay plate contained 10 μM puromycin (final concentration) and 0.5% DMSO in RPMI-1640 as positive and negative controls, respectively. Assay plates were incubated for five days at 37° C. in an incubator set at 5% CO2 and 90% humidity. After five days, 22 μL of Cell Titer Glo reagent (Promega) was added to the assay plates with a Biotek uFlow Workstation. Plates were subsequently placed on a Perkin Elmer Envision Plate Reader for five minutes before the luminescence signal was read. CC50 values were calculated by non-linear regression using Pipeline Pilot software by applying a four parameter fit equation (Accelrys, San Diego, Calif.) and are reported in the following Table 2.
(Cellular ATP, detected with luciferase, serves as a proxy for viable cell number.)

A short description of data set [1]: Pharmacokinetic analysis following intravenous administration to rats. Format: in vivo. The conditions noted are these: male, Sprague-Dawley, rat, intravenous infusion over 30 min, 1 mg/kg; for clearance / Vd: plasma; for Vd: read-out: Vss; for half-life: terminal plasma half-life. As for the experimental part:
(§1) Pharmacokinetic analysis was performed on various test compounds following intravenous or oral administration to male Sprague-Dawley rats.
(§2) For pharmacokinetic analysis of intravenously administered compounds, the test compounds were formulated in 5% NMP, 30% PG, 45% PEG 300 and 20% water at 0.5 mg/mL for IV infusion. For pharmacokinetic analysis following oral administration, compounds were formulated in the same vehicle and concentration.
(§3) Each dosing group consisted of 3 male, naïve Sprague-Dawley rats. At dosing, animals weighed approximately 0.28 kg. The animals were fasted overnight prior to dose administration and up to 4 hr after dosing. For studies of intravenous administration, the test article was administered to the animals by intravenous infusion over 30 min. The rate of infusion was adjusted according to the body weight of each animal to deliver a dose of 1 mg/kg. For studies of oral administration, the test article was administered according to the body weight of each animal to deliver a dose of 5 mg/kg.
For pharmacokinetic analysis of intravenously administered compounds, serial venous blood samples (approximately 0.3 mL each) were taken from each animal at 0, 0.250, 0.483, 0.583, 0.750, 1.50, 3.00, 6.00, 8.00, 12.0, and 24.0 hours after dosing. The blood samples were collected into Vacutainer™ tubes containing EDTA-K2 as the anti-coagulant and were immediately placed on wet ice pending centrifugation for plasma. An LC/MS/MS method was used to measure the concentration of the test compound in plasma. An aliquot of 100 μL of each plasma sample was added to a clean 96 well plate, and 400 μL of cold acetonitrile/internal standard solution (ACN)/(ISTD) was added. After protein precipitation, an aliquot of 100 μL of the supernatant was transferred to a clean 96-well plate and diluted with 175 μL of water. An aliquot of 10 μL of the above solution was injected into an ABSciex API-4000 LC/MS/MS system utilizing a HyPurity C18 HPLC column (30×2.1 mm, 3 m; Thermo-Hypersil Part #22103-032130). An Agilent 1200 series binary pump (P/N G1312A Bin Pump) was used for elution and separation, and an HTS Pal autosampler (LEAP Technologies, Carrboro, N.C.) was used for sample injection. A TSQ Quantum Ultra triple quadrupole mass spectrometer was utilized in selective reaction monitoring mode (Applied Biosystems, Foster City, Calif.). Liquid chromatography was performed using two mobile phases: mobile phase A contained 0.1% formic acid and 1% isopropanol in water; and mobile phase B contained 0.1% formic acid and 1% isopropanol in acetonitrile. Non-compartmental pharmacokinetic analysis was performed on the plasma concentration-time data.
The resulting data are shown in the first three columns of Table 4. In Table 4, CL refers to clearance, which characterizes the rate at which drug is removed from plasma. The lower the clearance of a drug is, the longer the elimination half-life is in the body. Vss refers to the steady state volume of distribution and indicates how well a drug is distributed into the tissues. The larger the Vss is, the longer the elimination half-life is in the body. T1/2 refers to the terminal plasma half-life of the compound.

A short description of data set [2]: Pharmacokinetic analysis following oral administration to rats. Format: in vivo, male Sprague-Dawley rats. The conditions noted are these: rat, 5 mg/kg; for Cmax / AUC(0-t): male, Sprague-Dawley, plasma; for AUC(0-t): 0 to 24 hr, read-out: AUC0-24; for F: oral bioavailability. The protocol:
as §1, §2, §3
For pharmacokinetic analysis of orally administered compounds, serial venous blood samples (approximately 0.3 mL each) were taken from each animal at time points of 0, 0.25, 0.50, 1.0, 2.0, 4.0, 6.0, 8.0, 12.0 and 24.0 hours after dosing. Blood samples were collected, prepared and analyzed in a similar way to the intravenous studies described above. Non-compartmental pharmacokinetic analysis was performed on the plasma concentration-time data. The resulting data are shown in the last three columns of Table 4. In Table 4, F (%) refers to oral bioavailability. Cmax refers to the peak plasma concentration of the compound after administration. AUC0-24 refers to area under the curve for the 0 to 24 hr plasma collection interval and is a measure of total plasma exposure of the indicated compound.

Broadly, the CC50 is the concentration that lowers cell viability or growth by half. One may read the clearance as a measure of how efficiently the substance is removed, as volume per time. Higher therefore signals efficient removal. A word on the half-life: it is the time needed for the level to fall by half in the phase considered. High values mean slow loss, low ones fast loss. Usually Cmax stands for the peak of the concentration-time curve. As to `COCCCOc1cc2c(cc1Cl)-c1cc(=O)c(C(=O)O)cn1[C@H](C(C)(C)C)C2` [Comparative Example 2], the CC50 at 5 days in “MT-4 cytotoxicity assay” was found to be 5.7 µM. Besides, in data set [1], the clearance is 5.05 mL/min/kg, the Vd turned out to be 0.661 L/kg and the half-life is 1.99 h. Also, in data set [2], the Cmax came out at 2.43 µM, the AUC(0-t) worked out at 15.2 µM·h and the F stood at 40.5%.

Consider `COCCCOc1cc2c(cc1Cl)-c1cc(=O)c(C(=O)O)cn1N(C(C)(C)C)C2` [Example 2, 6-(tert-Butyl)-10-chloro-9-(3-methoxypropoxy)-2-oxo-6,7-dihydro-2H-pyrido[2,1-a]-phthalazine-3-carboxylic acid], for which the CC50 at 5 days in “MT-4 cytotoxicity assay” is greater than 10 µM. Besides, in data set [1], the clearance was 2.97 mL/min/kg, the Vd was 0.623 L/kg and the half-life is 3.34 h. Further, in data set [2], the Cmax is 6.76 µM, the AUC(0-t) was 68.6 µM·h and the F was determined as 109%.

As for `COCCCOc1cc2c(cc1Cl)-c1cc(=O)c(C(=O)O)cn1[C@H](C1(C)CC1)C2` [Comparative Example 1], the CC50 at 5 days in “MT-4 cytotoxicity assay” amounted to 4.2 µM. For the same compound, in data set [1], the clearance is 5.67 mL/min/kg, the Vd stood at 0.57 L/kg and the half-life was 1.62 h. In addition, in data set [2], the Cmax turned out to be 4.03 µM, the AUC(0-t) was determined as 22.1 µM·h and the F worked out at 53.8%.
